# Experimental data taken from patent US12673039B2, “Methods of inducing autophagy using coumarin derivatives and related compounds” (Buck Institute for Research on Aging, priority 2019, dated 2026).
# Columns and labels:
# [1] = molecular target: T1, human FXR (Homo sapiens, UniProt Q96RI1); assay: Human FXR antagonist reporter assay; format: cell-based
# T1 construct: purchased Cayman
# T1 sequence (Q96RI1 1-486): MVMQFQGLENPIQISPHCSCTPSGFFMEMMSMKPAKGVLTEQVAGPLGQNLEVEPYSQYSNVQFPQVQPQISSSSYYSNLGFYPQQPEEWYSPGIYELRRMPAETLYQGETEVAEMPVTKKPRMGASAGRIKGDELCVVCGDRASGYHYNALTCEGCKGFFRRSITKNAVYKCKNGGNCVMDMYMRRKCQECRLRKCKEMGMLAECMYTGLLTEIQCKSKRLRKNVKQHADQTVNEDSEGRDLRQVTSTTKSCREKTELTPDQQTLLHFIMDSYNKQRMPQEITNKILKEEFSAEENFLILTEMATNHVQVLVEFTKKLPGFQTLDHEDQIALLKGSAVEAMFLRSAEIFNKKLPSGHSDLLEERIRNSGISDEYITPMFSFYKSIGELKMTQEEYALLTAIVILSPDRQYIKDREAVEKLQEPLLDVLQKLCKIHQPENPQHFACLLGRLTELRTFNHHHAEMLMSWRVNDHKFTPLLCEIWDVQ
# Experimental: FIG. 7 illustrates that coumarin 106 (“C1”, “AIC106”) acts as a potent FXR antagonist. The ability of C1 (AIC106) (10 μM and 30 μM) to inhibit activation of the FXR agonist […] (GW, 150 μM) was interrogated using a commercially available kit (Indigo Biosciences) versus the established natural FXR ligands TUDCA and UDCA (50 μM and 100 μM). Values are fold induction versus untreated controls; ****p<0.01 versus GW; **p<0.05 versus GW.
# FIG. 23, panels A-H: FXR modulation enhances HLH-30 expression in human neuronal SH-SY5Y cells. Panel A) Effects of AIC106 on human FXR activity was determined in a mammalian one-hybrid based kit assay by quantifying changes in the luciferase activity of FXR ligand (GW4064, GW) induced treatment. […] Panel B) Protein expression of TFEB, cathepsin-D (CAT-D) and small heterodimer partner-1 (SHP-1) was determined by immunoblot in neuronal SH-SY5Y cells post-24 hours of treatment with AIC106 and DMSO-control. […] Autophagic flux in DMSO-control and AIC106 treated neuronal cells was determined by quantifying levels of autophagosome specific LC3-II protein both in presence and absence of autophagy inhibitor bafliomycin A1 (Baf A, 10 nM). […]
# Antagonistic activity of the AIC106 on human FXR was determined using a commercially available FXR Human reporter assay kit (Cayman) according to the supplied manual. […] Luminescence was quantified. […]
# [2] = system: worms expressing human Abeta and alpha-synuclein; assay: Neurodegenerative C. elegans models expressing human Abeta and alpha-synuclein (Example 1); format: in vivo; settings: worms expressing human Abeta and alpha-synuclein (FIG. 11)
# Experimental: FIGS. 11A-11D illustrate that coumarin 106 (“C1”, “AIC106”) is protective in a TFEB-dependent manner in C. elegans models that express human neurotoxic proteins. FIG. 11A) Transgenic worm strain expressing human alpha-synuclein under control of the dopamine-specific promoter grown on control or HLH-30 RNAi were exposed to 20 μM C1 versus DMSO-only controls on day-1 of adulthood. GFP+ cell counts were performed in young adults. Values represent number of animals displaying no DAergic cell loss; pooled results from 2 independent experiments. FIG. 11B) Transgenic worm strain expressing human alpha-synuclein under control of the muscle-specific promoter grown on control or HLH-30 RNAi were exposed to 20 μM C1 versus DMSO-only control on day-1 of adulthood followed by transfer to fresh plates every alternative day. Number of trashes per 30 sec were measured at day-6 and day-7 (n>60). *p<0.03, ***p<0.0008, ****p<0.0001. FIG. 11C) Transgenic worms expressing Abeta tagged with GFP within glutaminergic neurons grown on control or HLH-30 RNAi were exposed to 50 or 200 μM C1 versus DMSO-only controls on day-1 of adulthood. GFP+ cell counts were performed in young adults. Values represent % intact neurons. […] Number of trashes per 30 sec were measured at day-6 and day-7 (n>60). *p<0.03, ****p<0.0001. […]
smiles,measurement,setting,value
"O=c1oc2c3c4c(cc2c2c1CCC2)CCCN4CCC3 [C1, 2,3,6,7,10,11-Hexahydro-1H,5H-cyclopenta(3,4)(1)benzopyrano(6,7,8-ij)quinolizin-12(9H)-one]",FXR activation elicited by the FXR agonist GW4064,[1]; C1 10 μM and 30 μM versus TUDCA and UDCA (FIG. 7),significantly inhibited FXR activation
same,ligand-induced activation of human FXR,"[1]; FXR ligand GW4064 (FIG. 23, panel A)",prevented ligand-induced activation of the human FXR protein
same,protection in neurodegenerative C. elegans models,[2],protection in a TFEB-dependent manner
